SMILES strings stand for the structures.

Series [1] relates to Human immunodeficiency virus 1. Description: Antiviral activity against HIV1 3B infected in human MT4 cells assessed as inhibition of viral replication by MTT assay. In kind it is functional, organism-based. To be noted: Human immunodeficiency virus 1, 3B. In general terms: Formazan colour is commonly taken as a measure of viable cells.
Series [2] in a line: Cytotoxicity against human MT4 cells by MTT assay. The format is cell-based.
Series [3] in a line: Selectivity index, ratio of CC50 for human MT4 cells to EC50 for HIV1 3B infected in human MT4 cells. In kind it is toxicity, cell-based. Particulars: MT4 cells (uninfected for CC50; HIV-1 3B infected for EC50).
Series [4] has as its system Human immunodeficiency virus 1. Description: Inhibition of LEDGF/p75-HIV1 integrase interaction at 100 uM by Alphascreen assay. (Alpha assays give light when donor and acceptor beads are brought close together.)

For the compound `CCCC(C(=O)O)c1cnc2sc(C)cc2c1-c1ccc(C)cc1` (stereo not drawn), in series [1], the EC50 worked out at 0.76 µM. In series [2], the midpoint of cytotoxicity, the CC50, lay at 72.2 µM. In addition, the selectivity ratio in series [3] stood at 95.

As for `Cn1c(=O)c(/C(=N/c2ccccc2)c2nnn[nH]2)c(O)c2ccccc21`, the inhibition in series [4] was 36%.

Take `CCCC(C(=O)O)c1c(-c2ccccc2)c2cc(Cl)ccc2n(CCC)c1=O` (stereo not drawn): in series [1], the EC50 is 10.8 µM. In series [2], this compound came in with a CC50 of 64.4 µM. Moreover, the selectivity ratio in series [3] amounted to 6.

With `O=C(O)Cc1c(-c2ccccc2)c2cc(Cl)ccc2[nH]c1=O`, the EC50 in series [1] is 41.9 µM. For the same compound, the CC50 in series [2] was over 150 µM. The selectivity ratio in series [3] is over 3.

In series [2], `Cc1ccc(-c2c(C(OC(C)(C)C)C(=O)O)cnc3sc(C)cc23)cc1` (stereo not drawn) returned a CC50 of 96 µM. For the same compound, the selectivity ratio in series [3] stood at 1390.

`C=CCC(C(=O)O)c1c(-c2ccccc2)c2cc(Cl)ccc2[nH]c1=O` (stereo not drawn): the EC50 in series [1] came to 12.4 µM. The compound also yielded a CC50 in series [2] of 67.3 µM. The selectivity ratio in series [3] stood at 6.

Turning to `CCCC(C(=O)O)c1c(C)nc2ccc(Cl)cc2c1-c1ccccc1` (stereo not drawn), the EC50 in series [1] turned out to be 2.35 µM. Further, the CC50 in series [2] was determined as 67.3 µM. In addition, the selectivity ratio in series [3] was 25.

A word on the EC50: it is the concentration at which the effect is half-maximal. As usually defined, the CC50 is the concentration at which the toxic effect on the cells reaches its halfway point. A lower CC50 goes with harm at low concentration. As usually defined, the inhibition is the change of the read-out against control, counted positive when it falls. A lower inhibition goes with a response near the control.
